Laboratory results from patent US12497403B2, “Factor XIa inhibitors” (Merck Sharp & Dohme LLC, priority 2021, dated 2025).
Values after ≈ are worked out from the molar mass of the structure shown. Like-named read-outs stand apart in the source and are kept apart here.

How the values were obtained:
human Factor XIa = human Factor XIa (Homo sapiens, UniProt P03951); test: Factor XIa assay; format: biochemical; conditions: human Factor XIa 0.04 nM, GPR-AFC substrate, 25° C., pH 7.4; read-out: FXIa IC50
Chain of human Factor XIa (P03951 388-625 limits assumed): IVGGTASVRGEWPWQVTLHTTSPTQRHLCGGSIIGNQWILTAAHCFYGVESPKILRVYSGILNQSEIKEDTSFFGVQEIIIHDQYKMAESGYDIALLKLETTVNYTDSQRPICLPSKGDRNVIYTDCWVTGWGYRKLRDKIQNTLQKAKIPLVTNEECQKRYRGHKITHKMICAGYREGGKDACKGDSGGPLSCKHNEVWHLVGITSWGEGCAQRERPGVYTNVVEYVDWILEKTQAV
Chain of human Factor XIa (P03951 19-387 partner limits assumed): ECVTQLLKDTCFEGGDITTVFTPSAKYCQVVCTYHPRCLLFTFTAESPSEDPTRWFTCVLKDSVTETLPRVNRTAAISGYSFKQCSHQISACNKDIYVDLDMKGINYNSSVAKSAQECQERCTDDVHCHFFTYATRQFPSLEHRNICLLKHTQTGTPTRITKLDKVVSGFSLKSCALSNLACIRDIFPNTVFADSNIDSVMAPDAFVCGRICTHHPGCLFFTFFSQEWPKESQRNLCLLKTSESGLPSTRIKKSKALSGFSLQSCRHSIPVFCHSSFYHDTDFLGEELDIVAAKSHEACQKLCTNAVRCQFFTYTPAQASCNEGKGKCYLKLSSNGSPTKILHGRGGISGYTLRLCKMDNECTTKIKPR
Method: The effectiveness of a compound of the present invention as an inhibitor of Coagulation Factor XIa can be determined using a relevant purified serine protease, and an appropriate synthetic substrate. The rate of hydrolysis of the chromogenic or fluorogenic substrate by the relevant serine protease was measured both in the absence and presence of compounds of the present invention. Assays were conducted at room temperature or at 37° C. […] A decrease in the rate of fluorescence change in the presence of inhibitor is indicative of enzyme inhibition. Such methods are known to one skilled in the art. The results of this assay are expressed as the half-maximal inhibitory concentrations (IC50), or the inhibitory constant, Ki.
Compounds were pre-incubated for 30 minutes at 25° C. with human (0.04 nM) Factor XIa in 50 mM HEPES buffer with 150 mM sodium chloride, 5 mM calcium chloride, 0.1% PEG 8000, pH 7.4. Factor XIa enzymatic activity was determined by addition of the substrate glycine-proline-arginine-7-amido-4-trifluoromethylcoumarin (GPR-AFC) and measurement of the fluorescence at 400/505 nm after a 60 minute incubation at 25° C. The % inhibition for each data point was calculated from the data and analyzed using the log (inhibitor) vs. response four parameters equation to determine the half-maximal inhibitory concentrations (IC50). The IC50 were converted to equilibrium inhibitory constants (Ki) using the Cheng-Prusoff equation.

[1] = molecular target: T1, Human Norepinephrine Transporter (NET) (Homo sapiens, UniProt P23975); test: Norepinephrine Transporter functional antagonist uptake assay; format: cell-based; conditions: [3H]Norepinephrine uptake, human recombinant NET in MDCK cells
T1 construct: host or cells: MDCK cells
T1 sequence (P23975 whole entry): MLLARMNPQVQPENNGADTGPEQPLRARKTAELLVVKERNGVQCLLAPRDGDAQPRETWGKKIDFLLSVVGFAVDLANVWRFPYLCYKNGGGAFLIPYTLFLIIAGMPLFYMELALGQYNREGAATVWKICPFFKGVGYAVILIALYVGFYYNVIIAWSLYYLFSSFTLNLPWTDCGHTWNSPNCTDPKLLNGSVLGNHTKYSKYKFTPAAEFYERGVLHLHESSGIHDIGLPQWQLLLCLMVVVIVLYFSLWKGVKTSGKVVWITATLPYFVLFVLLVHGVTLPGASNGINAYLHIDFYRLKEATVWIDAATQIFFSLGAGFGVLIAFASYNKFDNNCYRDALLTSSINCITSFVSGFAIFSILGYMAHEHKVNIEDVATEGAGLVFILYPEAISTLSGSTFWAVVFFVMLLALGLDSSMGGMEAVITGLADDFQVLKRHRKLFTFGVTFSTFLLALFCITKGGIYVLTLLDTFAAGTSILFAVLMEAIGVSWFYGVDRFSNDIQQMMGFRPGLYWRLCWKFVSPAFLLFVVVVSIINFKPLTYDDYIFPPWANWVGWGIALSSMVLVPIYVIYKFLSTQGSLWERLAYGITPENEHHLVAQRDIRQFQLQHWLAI
Method: Human Norepinephrine Transporter (NET) Functional Antagonist Uptake Assay was carried out at Panlabs Cerep (assay#302100). Human recombinant norepinephrine transporter expressed in MDCK cells were plated overnight. Test compound and/or vehicle was pre-incubated with cells (2×10E5/ml) in modified Tris-HEPES buffer pH 7.1 for 20 minutes at 25° C. and 25 nM [3H]Norepinephrine was then added for an additional 15 minute incubation period. A lysate was obtained from solubilized cells and counted to determine [3H]Norepinephrine uptake. Reduction of [3H]Norepinephrine uptake by 50 percent or more (≥50%) relative to 10 μM desipramine indicates significant inhibitory activity. Compounds are screened at 10, 3, 1, 0.3, 0.1, 0.03, 0.01 and 0.003 μM. These same concentrations are concurrently applied to a separate group of untreated cells and evaluated for possible compound-induced cytotoxicity only if significant inhibition of uptake is observed. IC50 values were determined by a non-linear, least squares regression analysis using MathIQTM (IDBusiness Solutions Ltd., UK).

[2] = High-throughput (HT) solubility determination; format: physicochemical; conditions: kinetic from dmso stock
Method: The chromatographic system consists of an Agilent 1290 UPLC/DAD system and ChemStation software, both from Agilent Technologies, USA. The separations are carried out on a Supelco Ascentis Express C18, 30 mm×3.0 mm I.D., 2.7 μm HPLC column. The mobile phase consists of Potassium phosphate buffered at pH 7 (mobile phase A) and acetonitrile (mobile phase B). The column oven temperature is set to 30° C. and the UPLC analysis consists of a gradient. The injection volume is 2 μL and the spectrophotometric detection is set to 215 and 238 nm.
A 10 mM stock solution of the compound in DMSO is supplied for analysis. 2.5 μL of stock solution (10 mM) was diluted into 247.5 μL of organic co-solvents (10% MeCN/80% MeOH/10% DMSO, v/v/v) to create a standard solution of 100 μM. To create the solubility solutions, 4.1 μL of 10 mM DMSO stock solution was diluted into […] of phosphate buffered saline (PBS) (pH 7) solution. A second 4.1 μL aliquot of 10 mM DMSO stock solution was added to 196 μL of PBS (pH 2) solution. A third 4.1 uL aliquot of 10 mM DMSO stock solution was added to 196 uL of FaSSIF (pH 6.5) solution. […] The equilibrated solubility solutions were filtered by centrifugation using a filter (0.45 μm, polypropylene). 50 μL each of the 100 μM standard solution and the filtered equilibrated solubility solutions were placed into a 384 well plate, and the plate was subsequently heat sealed.
Each standard and solubility solution was analyzed by UPLC/DAD. The solubility value was calculated by the following equation: Solubility=(Peak area of sample/Peak area of standard) (Standard concentration)

human tissue kallikrein = molecular target: T2, human tissue kallikrein (Homo sapiens, UniProt P06870); test: Inhibition of tissue kallikrein enzymatic activity; format: biochemical; conditions: human tissue kallikrein 5 nM, N-acetyl-KPR-AFC substrate, 25° C., pH 7.4; read-out: tKal IC50
T2 construct: purchased Ray Biotech or Evotec 228-10996
T2 sequence (P06870 25-262): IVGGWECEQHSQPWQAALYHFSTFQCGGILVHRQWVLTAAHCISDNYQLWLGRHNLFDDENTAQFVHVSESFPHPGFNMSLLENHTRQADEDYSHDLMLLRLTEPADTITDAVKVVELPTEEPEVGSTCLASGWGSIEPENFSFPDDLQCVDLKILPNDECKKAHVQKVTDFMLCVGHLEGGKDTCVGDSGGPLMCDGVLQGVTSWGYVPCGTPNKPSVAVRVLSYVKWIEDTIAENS
Method: Compounds were assayed with human tissue kallikrein (Ray Biotech, Cat # 228-10996 or Evotec, final concentration 5 nM) in 50 mM HEPES, 150 mM NaCl, 5 mM CaCl2, 0.1% PEG-8000, pH 7.4 at 25° C. in a Corning 3575 non-binding surface microplate. Compounds were tested in 10-point dose titrations starting at 166.67 uM with a 3-fold dilution series. Tissue kallikrein enzymatic activity was determined by measuring the rate of cleavage of N-acetyl-KPR-AFC substrate (Sigma, Cat # C6608, final concentration 100 uM) by continuously monitoring the fluorescence at 400/505 nm using a Tecan Safire plate-reader. The initial reaction rates (0) to 20 minutes) were used to determine percent inhibition. The % Inhibition for each data point was recalculated from the RFU/min data and analyzed using the log(inhibitor) vs. response four parameters equation with the GraphPad Prism software.

[3] = FaSSIF pH 6.5, shaken 24 hours at 25° C., read-out: pH 6.5 (FaSSIF) solubility
[4] = phosphate buffered saline (PBS) pH 2, aqueous buffer, PBS pH 2, shaken 24 hours at 25° C., read-out: pH 2 solubility

Row | SMILES | IC50 (human Factor XIa) [µM] | IC50 [1] [µM] | solubility kinetic at 24 h [2, 3] [µM] | solubility kinetic at 24 h [2, 4] [µM] | IC50 (human tissue kallikrein) [µM]
1 | CCOC(=O)c1[nH]c2nc1-c1ccc(NC(=O)OC)cc1NC(=O)C(C)(C)CCC[C@@H]2c1ccc(-c2cc(F)ccc2-n2cc(C(F)(F)F)cn2)c[n+]1[O-] [Example 1, (R,Z)-2-(1^5-(ethoxycarbonyl)-2^4-((methoxycarbonyl)amino)-5,5-dimethyl-4-oxo-1^1H-3-aza-1(4,2)-imidazola-2(1,2)-benzenacyclononaphane-9-yl)-5-(5-fluoro-2-(4-(trifluoromethyl)-1H-pyrazol-1-yl)phenyl)pyridine 1-oxide] | 0.00088 | > 10 | 39 (≈ 29.2 µg/mL) | 147 (≈ 110 µg/mL) | > 167
2 | CCOC(=O)c1[nH]c2nc1-c1ccc(NC(=O)OC)cc1NC(=O)C(C)(C)CCC[C@@H]2c1ccc(-c2cc(Cl)ccc2-n2cc(C(F)(F)F)cn2)c[n+]1[O-] [Example 2, (R,Z)-5-(5-chloro-2-(4-(trifluoromethyl)-1H-pyrazol-1-yl)phenyl)-2-(1^5-(ethoxycarbonyl)-2^4-((methoxycarbonyl)amino)-5,5-dimethyl-4-oxo-1^1H-3-aza-1(4,2)-imidazola-2(1,2)-benzenacyclononaphane-9-yl)pyridine 1-oxide] | 0.00097 | > 10 | 27 (≈ 20.7 µg/mL) | 104 (≈ 79.7 µg/mL) | > 167
3 | CCOC(=O)c1[nH]c2nc1-c1ccc(NC(=O)OC)cc1NC(=O)C(C)(C)CCC[C@@H]2c1ccc(-c2cc(F)ccc2OC(F)F)c[n+]1[O-] [Example 3, (R,Z)-5-(2-(difluoromethoxy)-5-fluorophenyl)-2-(1^5-(ethoxycarbonyl)-2^4-((methoxycarbonyl)amino)-5,5-dimethyl-4-oxo-1^1H-3-aza-1(4,2)-imidazola-2(1,2)-benzenacyclononaphane-9-yl)pyridine 1-oxide] | 0.00026 | > 10 | 40 (≈ 27.3 µg/mL) | 171 (≈ 117 µg/mL) | 0.886
4 | CCOC(=O)c1[nH]c2nc1-c1ccc(NC(=O)OC)cc1NC(=O)C(C)(C)CCC[C@@H]2c1ccc(-c2cc(Cl)cnc2OC(F)F)c[n+]1[O-] [Example 4, (R,Z)-5′-chloro-2′-(difluoromethoxy)-6-(1^5-(ethoxycarbonyl)-2^4-((methoxycarbonyl)amino)-5,5-dimethyl-4-oxo-1^1H-3-aza-1(4,2)-imidazola-2(1,2)-benzenacyclononaphane-9-yl)-[3,3′-bipyridine] 1-oxide] | 0.0013 | > 10 | 33 (≈ 23.1 µg/mL) | 137 (≈ 95.8 µg/mL) | > 167
5 | CCOC(=O)c1[nH]c2nc1-c1ccc(NC(=O)OC)cc1NC(=O)C(C)(C)CCC[C@@H]2c1ccc(-c2cccc(Cl)c2F)c[n+]1[O-] [Example 5, (R,Z)-5-(3-chloro-2-fluorophenyl)-2-(1^5-(ethoxycarbonyl)-2^4-((methoxycarbonyl)amino)-5,5-dimethyl-4-oxo-1^1H-3-aza-1(4,2)-imidazola-2(1,2)-benzenacyclononaphane-9-yl)pyridine 1-oxide] | 0.00019 | > 10 | 51 (≈ 33.2 µg/mL) | 108 (≈ 70.2 µg/mL) | 15
6 | COC(=O)Nc1ccc2c(c1)NC(=O)C(C)(C)CCC[C@H](c1ccc(-c3cc(F)ccc3-n3cc(C(F)(F)F)cn3)c[n+]1[O-])c1nc-2c(C(=O)OC)[nH]1 [Example 6, (R,Z)-5-(5-fluoro-2-(4-(trifluoromethyl)-1H-pyrazol-1-yl)phenyl)-2-(1^5-(methoxycarbonyl)-2^4-((methoxycarbonyl)amino)-5,5-dimethyl-4-oxo-1^1H-3-aza-1(4,2)-imidazola-2(1,2)-benzenacyclononaphane-9-yl)pyridine 1-oxide] | 0.00081 | > 10 | 64 (≈ 47.1 µg/mL) | 163 (≈ 120 µg/mL) | > 167
